Experimental data taken from patent US20170304169A1, “USE OF A COSMETIC COMPOSITION COMPRISING 10-HYDROXYSTEARIC ACID” (DSM IP ASSETS B.V., priority 2014, published 2017).

How the values were obtained:
Format in all cases: cell-based
[1] = tested on: Collagen 3; assay: Collagen 3 immunostaining in human skin organ culture; details: topical, human skin explants
Method: (§1) Human skin from abdominal plastic surgery has been used (donor[…]). Informed consent has been obtained. The skin phototype has been assayed with a spectro-colorimeter and classified as “BROWN” (ITA° angle=9.3°) (pigmentation scale: very light<light<intermediate<tanned<brown<dark) (Del Bino et al., Pigment Cell Research, 19. 2006).
(§2) The skin samples have been cut in pieces of approximately 8×3 mm (ø×thickness) and cultured up to day 6. Fourteen skin specimens have been used for each treatment. Two skin samples have been cultured to perform the skin viability test, six to perform the skin pigmentation and the collagen analyses and six for the SBC test.
Skin samples have been cultured in an air-liquid interface in a perforated ring of stainless steel in contact with culture medium (modified Williams' E medium) up to day 6. […]
Skin sections have been immune-stained with the selected antibody. The amount of the antigen present in each slide has been evaluated by estimating the intensity and the distribution of the red within a selected area of the dermis using Image J (NIH-USA). […]
All quantitative data have been summarized in terms of the mean score for each treatment. […] Differences between groups were evaluated by One-way anova with permutation test followed by pairwise post-hoc comparisons—Dunnett's permutation test and pairwise post hoc comparisons—Tukey's HSD permutation tests.

[2] = tested on: Human dermal fibroblasts; assay: Cytotoxicity measurement, MTT assay in human dermal fibroblasts; details: normal human fibroblasts, 48 h
Method: (§3) Human dermal fibroblasts isolated from a biopsy of a donor (Fb-D) were maintained in Dulbecco's modified Eagle's medium high glucose (DMEM) containing 10% fetal calf serum (FCS) and 1% penicillin/streptomycin (P/S). Cells were cultivated at 37° C. in a humidified 5% CO2-air atmosphere.
Cytotoxicity was measured using the MTT assay according to the manufacturer's instructions. In brief: Fibroblasts (4000 cells/well, in 96-well cell culture plates from Nunc) were pre-cultured in DMEM 10% FCS 1% Penicillin/Streptomycin (P/S) for 24 h before being starved in DMEM low glucose containing 0.2% FCS and 1% P/S for 2.5 days. Starvation medium was then replaced and solubilized compounds were added and incubated for 48 h. Subsequently 10 μl MTT labelling reagent were added to each well (final concentration 0.5 mg/ml) and the microtiter plate was incubated for 4 h (37° C., 5% CO2). After addition of 100 μl solubilization solution into each well, the plate was allowed to stand overnight in the incubator (37° C., 5% CO2). The absorbance (OD) was measured in an absorbance plate reader at 550 nm.
Normal human fibroblasts treated with compounds for 48 h were assessed for viability using the MTT assay. Control values without compound were set to 100% viability.

[3] = tested on: Human skin from abdominal plastic surgery; assay: Skin viability (MTT) in human skin organ culture; details: topical, 0.1, 1 and 10 mg/ml, day 6, MTT
Method: as §1, §2
Skin samples have been cultured in an air-liquid interface in a perforated ring of stainless steel in contact with culture medium (modified Williams' E medium) up to day 6. The culture medium has been renewed every three days (i.e. day 0-3).
Both the test samples and the controls have been applied topically and renewed daily. […]
After 6 days of incubation two skin biopsies have been weighed and, in case, reduced in the dermal portion, in order to have approximately the same weight for all of them. […] Subsequently the blue crystals have been solubilized and the color intensity, that is directly proportional to skin vitality, has been measured with a plate reader at a wavelength of 570 nm. […]

[4] = tested on: p53; assay: p53 detection and quantification in UVB-irradiated human skin organ culture; details: 0.1 mg/ml, UVB (1 J/cm2), human skin explants
Method: Cell culture was performed as in example 12 above.
Skin sections have been stained with the antibody for p53 (Abcam, #ab7757). The p53 positive cells have been counted and the obtained value have been divided upon the area covered by epidermis. Two slides of each skin sample have been processed by image acquisition and related analysis (i.e. 12 images for each test treatment).
All quantitative data have been summarized in terms of the mean score for each treatment. The measures of variation as standard deviation and standard error of mean (SEM) have been applied to the original scores. Differences between groups were evaluated by One-way anova with permutation test followed by pairwise post-hoc comparisons—Dunnett's permutation test and pairwise post hoc comparisons—Tukey's HSD permutation tests.

[5] = tested on: Collagen 1; assay: Collagen 1 synthesis in normal human fibroblasts (immunofluorescence, high content imaging); details: 48 h, primary human fibroblasts; for collagen 1 induction (in words): increasing amounts of compound
Method: as §3
Human dermal fibroblasts were pre-cultured in DMEM 10% FCS 1% P/S for 24 h before being starved in DMEM low glucose containing 0.2% FCS and 1% P/S for 2.5 days. Starvation medium was then replaced and solubilized compounds were added and incubated for 48 h. After compound incubation cells were fixed in DPBS containing 4% formaldehyde for 15 min and permeabilized with DPBS 0.1% Triton-X100 for 90 sec. Collagen 1 was detected using mouse anti human collagen 1 antibody and the first antibody was detected with AlexaFluor 488 conjugated goat anti-mouse IgG. We counterstained nuclei with DAPI. Stained cells were analysed with the Thermo Fisher High Content Imaging System. There were acquired 49 pictures per well with a 10× objective and images were subsequently analysed using the “CellHealthProfiling” bioapplication v4. Collagen 1 was measured in a defined region around the nucleus and the fluorescence intensity values were normalized to cell count.
Following a pre-culture period, primary human fibroblasts were incubated for 48 h with increasing amounts of compound. Cells were then fixed and collagen 1 protein level was assessed by immunofluorescence. The experiment was repeated twice. After starvation fibroblasts were incubated for 48 h with increasing amounts of compound. TGF-β1 serves as positive control. Values given are fold collagen 1 induction compared with control cells. […] Collagen 1 induction reached 2.2 fold induction when 10-HSA was used at 5 μM.

[6] = tested on: MMP-1; assay: MMP-1 expression by RT-qPCR in UVB-irradiated human skin organ culture; details: UVB (1 J/cm2), human skin explants
Method: Human skin from abdominal plastic surgery has been used (donor). Informed consent has been obtained. The skin phototype has been assayed with a spectro-colorimeter and classified as “LIGHT” (ITA° angle=50°) (pigmentation scale: very light<light<intermediate<tanned<brown<dark) (Del Bino et al., Pigment Cell Research, 19. 2006).
The skin samples have been cut in pieces of 8×3 mm (ø×thickness) and cultured up to day 2. Two skin samples for each treatment have been cultured to perform the MMP-1 analysis.
Skin samples have been cultured in an air-liquid interface in a perforated ring of stainless steel in contact with culture medium (modified Williams' E medium) up to day 2. The culture medium has been renewed every three days (i.e. day 0-3).
Both the test samples and the controls have been applied topically, renewed 1 hour prior of UVB irradiation. Right before the irradiation the treatments have been gently yet carefully removed from the skin samples. […]
For RT-qPCR analysis, total RNA have been extracted from full thickness skin using RNAeasy mini kit for fibrous tissues (Qiagen) following manufacturer's instructions. After quantification, 400 ng of total RNA have been retro-transcribed using random hexamers and Superscript III (Invitrogen). […]

[7] = tested on: Type III collagen; assay: Collagen 3 synthesis in normal human fibroblasts (immunofluorescence, ArrayScan); details: 48 h, human dermal fibroblasts
Method: Human dermal fibroblasts obtained from adult skin (donor) were seeded into 96-well plates (4000 cells/well) and cultured in Dulbecco's Modified Eagle Medium (DMEM) with 10% fetal calf serum (FCS) and 1% Penicillin/Streptomycin (Life Technologies, Lucerne, Switzerland) at 37° C. with 5% CO2 for 24 h. After medium was changed with DMEM Low Glucose containing 0.2% FCS and 1% Pen/Strep, the cells were incubated for another 2.5 days. Then, starvation medium was replaced with fresh medium containing the test compounds. After 48 h incubation the cells were fixed in Dulbecco's Phosphate-Buffered Saline (DPBS) containing 4% formaldehyde (Life Technologies, Lucerne, Switzerland) for 15 min and permeabilized with 0.1% Triton-X100 in DPBS for 90 sec.
Collagen 3 was detected using rabbit anti-human Type III collagen (BioTrend, Cologne, Germany), followed by the AlexaFluor 488 conjugated secondary IgG antibody (goat anti-rabbit IgG, Life Technologies, Lucerne, Switzerland). […]
Stained cells were analysed with the ArrayScan VTI HCS Reader (Thermo Fisher Scientific, Waltham, Mass., USA). The total of 49 pictures per well was acquired with a 10× objective and images were subsequently analysed using the “CellHealthProfiling” bioapplication v4. Collagen was measured in a defined region around the nucleus and the fluorescence intensity values were normalized to the cell count. […]

CCCCCCCCC(O)CCCCCCCCC(=O)O (centres unmarked) [10-HSA, 10-hydroxystearic acid]
increase in expression of collagen 3 ([1]; 0.1 mg/ml): +49% | increase in expression of collagen 3 ([1]; 1 mg/ml): +57% | cytotoxic effect (reduction of cell survival to less than 80% compared to control cells) [2]: did not show any cytotoxic effect | skin viability [3]: did not affect skin viability | p53 UV-induced stimulation vs DMSO UV [4]: −46% | fold collagen 1 induction compared with control cells ([5]; 5 μM): 2.2 fold | collagen 1 induction (in words) [5]: dose dependent induction of collagen 1 | MMP-1 expression in comparison to vehicle (DMSO), in words [6]: significantly and considerably reduced the expression of MMP-1 | increase in type III collagen compared with medium treated cells ([7]; 5 μM): 244% | type III collagen synthesis (in words) ([7]; p<0.01 relative to medium control): significantly induced type III collagen synthesis in a dose-dependent manner

CCCCCCCCCCCCCCCCCC(=O)O [stearic acid]
collagen 1 induction (in words) [5]: did not induced collagen 1 expression
